Results published in patent publication US12600740B2, “Fluorinated N-acetyl glucosamine analogs and xylose derivatives” (UTI Limited Partnership, priority 2018, dated 2026).
“Also recorded” adds a separate entry of the source.

Legend:
EAE mice [1] = experiment: Flow cytometry of spinal cord and circulating leukocytes in EAE mice; type: in vivo, mouse
From the text: To assess the inflammatory profile of circulating leukocytes, we performed flow cytometry using a modified protocol published previously [Bellavance, M. A., Gosselin, D., Yong, V. W., Stys, P. K. & Rivest, S. Patrolling monocytes play a critical role in CX3CR1-mediated neuroprotection during excitotoxicity. Brain Struct Funct 220, 1759-76 (2015)]. Briefly, mice were anaesthetized using ketamine/xylazine, after which blood was drawn via cardiac puncture. Heparin-coated syringes were used to draw approximately 130 μL of blood, which was then subsequently diluted with 70 μL of Hanks' Balanced Salt Solution (HBSS; Gibco) without calcium and magnesium. Fc receptors were then blocked by addition of Mouse BD Fc Block (1:100; BD Pharmingen) for 30 minutes at 4° C. Primary antibodies (1:50) were then added and incubated for 45 minutes at 4° C. The primary antibodies used were CD45-PerCP (BD Pharmingen; Clone 30-F11), CD11b-FITC (BD Pharmingen; Clone M1/70), Ly6G-APC-Cy7 (BD Pharmingen; Clone 1A8), Ly6C-V450 (BD Horizon; Clone AL-21), and CD3-PE (BD Pharmingen; Clone 17A2). Red blood cells were then lysed by rocking samples at room temperature for 12 minutes with 1 mL of BD FACS Lysing Solution (BD Biosciences). Samples were then washed at 1200 rpm for 10 minutes at 4° C., followed by two more washes at 2000 rpm for 3 minutes at 4° C. Prior to acquisition on a flow cytometer (BD LSRII), cells were then fixed in 1% formalin for 10 minutes and then resuspended in HBSS without calcium and magnesium.
For flow cytometry of the spinal cord, spinal cords were dissected following a PBS perfusion. The thoracic and lumber sacral part of isolated spinal cords were separated into neural and leucocyte populations by density gradient centrifugation using isotonic Percoll (GE Healthcare). The leukocytes samples were prepared at 4° C. in fluorescence-activated cell sorting (FACS) buffer solution (BD Biosciences) and Fc receptors were then blocked by addition of Mouse BD Fc Block (1:100; BD Pharmingen) for 30 minutes at 4° C. The cells were stained with antibodies against CD45-PerCP (BD Pharmingen; Clone 30-F11), CD11b-FITC (BD Pharmingen; Clone M1/70) and CD3-APC-Cy7 (BD Pharmingen; Clone 17A2) for 45 minutes and then washed three times with FACS buffer. The cells were fixed in 1% buffered formalin for 10 min and resuspended in the 200 μl of the FACS buffer.
Data acquisition was performed on a flow cytometer (BD FACSAria; BD Biosciences) and analysed with FlowJo software (version 8.6, TreeStar). To ensure proper compensation and gating, unstained samples, appropriate isotype controls, and single-stain controls were included. All data was analyzed using FlowJo software.

EAE mice [2] = experiment: Perivascular cuffs per spinal cord and Imaris quantification of CD45+ cells in EAE mice; type: in vivo, mouse
From the text: Previously it was shown that CSPGs are accumulated in perivascular cuffs and may have a role in activating immune cells and promoting their migration into the CNS [Stephenson, E. L. et al. Chondroitin sulfate proteoglycans as novel drivers of leucocyte infiltration in multiple sclerosis. Brain: a journal of neurology 141, 1094-1110 (2018)]. For the current study, cervical spinal cord sections from EAE mice treated with Ac-4,4-diF-GlcNAc 16 or vehicle were stained with pan-laminin and CD45. Confocal images were processed by Imaris software to quantify the number of CD45+ cells and their intra-parenchymal distances from perivascular cuffs as previously described [Stephenson, E. L. et al. Chondroitin sulfate proteoglycans as novel drivers of leucocyte infiltration in multiple sclerosis. Brain: a journal of neurology 141, 1094-1110 (2018)] (FIG. 10f).
Perivascular cuffs were identified with pan-laminin staining of two basement membranes with CD45+ cells clustered within the perivascular space. To obtain the average number of perivascular cuffs per spinal cord, perivascular cuffs were counted on 4 cervical spinal cord sections (each >200 μm apart), and then averaged to obtain the average perivascular cuffs per spinal cord per mouse. The Imaris software (Bitplane, Switzerland) was used to quantify the number and distance of CD45+ cells around perivascular cuffs. CD45+ cells were registered as spots and the laminin-positive membranes were registered as surfaces. The Xtension component in Imaris ‘distance transformation’ calculated the distance of every CD45+ cell from the perivascular cuff.

splenocytes = experiment: Splenocyte thymidine proliferation assay (anti-CD3/anti-CD28); type: cell-based, mouse; conditions: increasing concentrations, 48 hours
EAE mice [3] = conditions: previously shown (Keough et al. 2016), 50 mgkg−1; cited from earlier work
[4] = system: CSPG production by astrocytes; conditions: previously described (Keough et al. 2016); cited from earlier work
[5] = system: mice demyelinated with lysolecithin; conditions: previously described (Keough et al. 2016); cited from earlier work
[6] = 25 mg/kg daily day 7 to 15, lumbar/thoracic spinal cord
[7] = 25 mg/kg daily day 7 to 15, spinal cord

Row | SMILES | circulating monocyte, neutrophil and lymphocyte populations (EAE mice [1]; 25 mg/kg daily day 7 to 15, blood at peak EAE) | CD45+ CD3+ T lymphocytes within the spinal cord (EAE mice [1]; [6]) | CD45HiCD11b+ infiltrating monocytes/macrophages in spinal cord (EAE mice [1]; [6]) | median fluorescence intensity of CD11b of CD11b+CD45+ cells (EAE mice [1]; [7]) | median fluorescence intensity of CD45 in CD11b+CD45+ cells (EAE mice [1]; [7]) | CD45+ cells by distance from perivascular cuffs, overall versus vehicle (EAE mice [2]; 0 to 100 μm, two-way repeated measures ANOVA) | average number of perivascular cuffs per spinal cord (EAE mice [2]; 25 mg/kg daily day 7 to 15) | CD45+ cells in the vicinity of perivascular cuffs (within 100 μm) (EAE mice [2]; 25 mg/kg daily day 7 to 15, cervical spinal cord) | number of CD45+ cells at 50-100 μm from perivascular cuffs versus vehicle (EAE mice [2]; 50-100 μm) | dose-response to reduce proliferation in splenocytes (splenocytes) | EAE clinical disability (EAE mice [3]) | production of CSPGs by astrocytes [4] | remyelination [5]
1 | CC(=O)NC1C(OC(C)=O)OC(COC(C)=O)C(F)(F)[C@@H]1OC(C)=O (mixture of isomers) [Compound 16, 2-Acetamido-1,3,6-tri-O-acetyl-2,4-dideoxy-4,4-difluoro-α/β-D-xylo-hexopyranose] | no significant difference; also recorded: did not show changes in monocyte or lymphocyte populations; also recorded: did not affect levels of circulating leukocytes | significantly lowered | significantly decreased | significantly reduced | decreased | overall significant difference | significantly reduced average number of perivascular cuffs | significantly fewer CD45+ cells in the vicinity of perivascular cuffs | significant difference | more effective than Ac-4-F-GlcNAc 3 at lower concentrations |  |  | 
2 | CC(=O)NC1C(OC(C)=O)OC(COC(C)=O)[C@@H](F)C1OC(C)=O (stereo partly shown) [Compound 3, reference compound] |  |  |  |  |  |  |  |  |  |  | attenuated the severity of mice afflicted with EAE; also recorded: reduced the ensuing EAE clinical disability | reduced production of CSPGs by astrocytes | promoted remyelination following lysolecithin demyelination of the mouse spinal cord
